Laboratory results from patent publication US4857521A, “Trialkylsilyl pyridinium cephalosporin antibiotics” (Sanwa Kagaku Kenkyusho Co., Ltd., priority 1986, dated 1989).
Counter-ions that a name gives are not always drawn.

Experiments:
Assay type in all cases: cell-based
P. vulgaris OX-19 = assay: MIC by agar plate dilution method, P. vulgaris OX-19; conditions: for MIC: Proteus vulgaris, OX19, seeding 10^6 cells/ml, read-out: minimum inhibitory concentration (MIC)
Method: (§1) Each series of dilution was prepared with use of testing compounds prepared by the Examples and control compound of Gentamicin as well as a liquid medium. The minimum inhibitory concentration (MIC in μg/ml) to each pathogen (seeding amount: 10^6 cells/ml) was determined, in accordance with the standard method (agar plate dilution method) by the Chemotherapy Society of Japan.

K. pneumoniae NCTC 9632 = assay: MIC by agar plate dilution method, K. pneumoniae NCTC 9632; conditions: for MIC: Klebsiella pneumoniae, NCTC9632, seeding 10^6 cells/ml, read-out: minimum inhibitory concentration (MIC)
Method: as §1

S. typhi T-287 = assay: MIC by agar plate dilution method, S. typhi T-287; conditions: seeding 10^6 cells/ml; for MIC: Salmonella enterica, read-out: minimum inhibitory concentration (MIC)
Method: as §1

P. aeruginosa Nc-5 = assay: MIC by agar plate dilution method, P. aeruginosa Nc-5; conditions: for MIC: Pseudomonas aeruginosa, NC5, seeding 10^6 cells/ml, read-out: minimum inhibitory concentration (MIC)
Method: as §1

E. coli K-12 = assay: MIC by agar plate dilution method, E. coli K-12; conditions: for MIC: Escherichia coli, K12, seeding 10^6 cells/ml, read-out: minimum inhibitory concentration (MIC)
Method: as §1

E. coli NIH = assay: MIC by agar plate dilution method, E. coli NIH; conditions: seeding 10^6 cells/ml; for MIC: Escherichia coli, read-out: minimum inhibitory concentration (MIC)
Method: as §1

C. fleundii NIH 10018-68 = assay: MIC by agar plate dilution method, C. fleundii NIH 10018-68; conditions: for MIC: read-out: minimum inhibitory concentration (MIC)
Method: as §1

S. flexneri 2a EW-10 = assay: MIC by agar plate dilution method, S. flexneri 2a EW-10; conditions: Shigella flexneri, 2AEW10, seeding 10^6 cells/ml, read-out: minimum inhibitory concentration (MIC)
Method: as §1

P. rettgeri NIH 96 = assay: MIC by agar plate dilution method, P. rettgeri NIH 96; conditions: for MIC: Providencia rettgeri, NIH96, seeding 10^6 cells/ml, read-out: minimum inhibitory concentration (MIC)
Method: as §1

| Compound | MIC (P. vulgaris OX-19) [µg/mL] | MIC (K. pneumoniae NCTC 9632) [µg/mL] | MIC (S. typhi T-287) [µg/mL] | MIC (P. aeruginosa Nc-5) [µg/mL] | MIC (E. coli K-12) [µg/mL] | MIC (E. coli NIH) [µg/mL] | MIC (C. fleundii NIH 10018-68) [µg/mL] | MIC (S. flexneri 2a EW-10) [µg/mL] | MIC (P. rettgeri NIH 96) [µg/mL] | minimum inhibitory concentration (MIC) (P. vulgaris OX-19; seeding 10^6 cells/ml) [µg/mL] | minimum inhibitory concentration (MIC) (K. pneumoniae NCTC 9632; seeding 10^6 cells/ml) [µg/mL] | minimum inhibitory concentration (MIC) (S. typhi T-287) [µg/mL] | minimum inhibitory concentration (MIC) (P. aeruginosa Nc-5; seeding 10^6 cells/ml) [µg/mL] | minimum inhibitory concentration (MIC) (E. coli K-12; seeding 10^6 cells/ml) [µg/mL] | minimum inhibitory concentration (MIC) (E. coli NIH) [µg/mL] | minimum inhibitory concentration (MIC) (C. fleundii NIH 10018-68; C. fleundii NIH 10018-68, seeding 10^6 cells/ml, agar plate dilution) [µg/mL] | minimum inhibitory concentration (MIC) (P. rettgeri NIH 96; seeding 10^6 cells/ml) [µg/mL] |
| --- | --- | --- | --- | --- | --- | --- | --- | --- | --- | --- | --- | --- | --- | --- | --- | --- | --- |
| CO/N=C(\C(=O)N[C@@H]1C(=O)N2C(C(=O)[O-])=C(C[n+]3cccc([Si](C)(C)C)c3)CS[C@H]12)c1csc(N)n1 [Example 1, [6R-[6α,7β(Z)]]-1-[7-[[(2-Amino-4-thiazolyl)(methoxyimino)acetyl]amino]-2-carboxy-8-oxo-5-thia-1-azabicyclo[4,2,0]oct-2-en-3-yl]methyl-3-trimethylsilylpyridinium hydroxide, inner salt] | < 0.2 | 0.39 | < 0.2 | 1.56 | 0.39 | < 0.2 | < 0.2 | < 0.2 | < 0.2 |  |  |  |  |  |  |  |  |
| CO/N=C(\C(=O)N[C@@H]1C(=O)N2C(C(=O)[O-])=C(C[n+]3ccc([Si](C)(C)C)cc3)CS[C@H]12)c1csc(N)n1 [Example 2, [6R-[6α,7β(Z)]]-1-[7-[[(2-Amino-4-thiazolyl)(methoxyimino)acetyl]amino]-2-carboxy-8-oxo-5-thia-1-azabicyclo[4,2,0]oct-2-en-3-yl]methyl-4-trimethylsilylpyridinium hydroxide, inner salt] | < 0.2 | 0.78 | 0.39 | 6.25 | 0.78 | < 0.2 | < 0.2 | 0.39 | < 0.2 |  |  |  |  |  |  |  |  |
| CO/N=C(\C(=O)N[C@@H]1C(=O)N2C(C(=O)[O-])=C(C[n+]3ccc(OC)c([Si](C)(C)C)c3)CS[C@H]12)c1csc(N)n1 [Example 3, [6R-[6α,7β(Z)]]-1-[7-[[(2-Amino-4-thiazolyl)(methoxyimino)acetyl]amino]-2-carboxy-8-oxo-5-thia-1-azabicyclo[4,2,0]oct-2-en-3-yl]methyl-4-methoxy-3-trimethylsilylpyridinium hydroxide, inner salt] | < 0.2 | 0.78 | 0.39 | 6.25 | 0.78 | 0.78 | 0.78 | 0.39 | < 0.2 |  |  |  |  |  |  |  |  |
| Gentamicin [reference compound] |  |  |  |  |  |  |  |  |  | 3.13 | 0.78 | 0.78 | 3.13 | 0.78 | 0.78 | 0.39 | < 0.20 |
